From patent US20190152986A1, “CRYSTAL FORM A OF MILBEMYCIN A3 OXIME AND PREPARATION METHOD THEREOF” (Zhejiang Hisun Pharmaceutical Co., Ltd., priority 2016, published 2019)

Legend:
Type in all cases: physicochemical
[1] = Photodegradation (light box, 600 w/m^2, 24 hrs)
Description: According to the ICH requirement, the total illuminance requirement of 200 w·hr/m^2 and 1,200,000 lux·hr is required for photodegradation. If the illuminance is 600 w/m^2, the ICH requirement is met, and the illumination time needs at least 9 hrs.
Approximately 600 mg of the sample was weighed, placed evenly in a weighing bottle, placed into a light box with an illuminance of 600 w/m^2 and illuminated for 24 hrs, taken out, placed into a desiccator and cooled to room temperature, and the weight loss on drying was measured.
(§1) The HPLC conditions for content determination are as follows: […]

[2] = Oxidative degradation (30% hydrogen peroxide, 24 hours)
Description: 1) Oxidative Degradation A sample of 50 mg was weighed accurately and added to a 100.0 ml volumetric flask, dissolved by adding 10 ml methanol, 1.0 ml of 30% hydrogen peroxide was added, standing for 24 hours, then was diluted to the scale with methanol.
as §1

[3] = Degradation stability test: original sample and overall comparison (HPLC content determination)
Source text: Meanwhile, the degradation stabilities of A3/A4 oxime and the crystal form A of A3 oxime were compared in the invention, and the degradation conditions are as follows:
as §1

[4] = Protection from light (black PE bag and aluminum foil bag in light box, 18 hrs)
Description: About 600 mg of the sample was weighed, placed evenly in a weighing bottle, the weighing bottle containing the sample was put into a black PE bag, and then the PE bag was packaged with an aluminum foil bag, the aluminum foil bag was placed into a light box with an illuminance of 600 w/m^2. After illumination of 18 hrs, taken out, placed into a desiccator and cooled to room temperature, and the weight loss on drying was measured.
as §1

[5] = Illumination: 600 w/m^2 for 24 hrs
[6] = Oxidation: 30% hydrogen peroxide in methanol, standing for 24 hours
[7] = Protection from light: PE bag and aluminum foil bag, light box 600 w/m^2, 18 hrs

Structure (SMILES): CC1=C[C@H]2C(=O)O[C@H]3C[C@@H](C/C=C(\C)C[C@@H](C)/C=C/C=C4\CO[C@H](/C1=N\O)[C@@]42O)O[C@@]1(CC[C@H](C)[C@@H](C)O1)C3 [crystal form A of A3 oxime, Milbemycin A3 oxime]
- Total Impurity increment ([1]; Illumination, versus original sample): 1.2485%
- Content [1, 5]: 96.8%
- Total Impurity [1, 5]: 1.57%
- Total Impurity increment ([2]; Oxidation, versus original sample): −0.0847%
- Content [2, 6]: 98.3%
- Total Impurity [2, 6]: 0.2368%
- Content ([3]; Original sample, HPLC): 98.1%
- Total Impurity ([3]; Original sample, HPLC): 0.3215%
- stability (degradation stability test results) ([3]; overall comparison of Table 2): significantly better than that of A3/A4 oxime
- Total Impurity increment ([4]; Protection from light, versus original sample): 0.0156%
- Content [4, 7]: 96.9%
- Total Impurity [4, 7]: 0.3371%
